# Data published in publication PMC6692352, “DF2726A, a new IL-8 signalling inhibitor, is able to counteract chemotherapy-induced neuropathic pain” (Scientific Reports, 2019).
# Columns and labels:
# CYP 2D6 = CYP 2D6 (Homo sapiens, UniProt P10635); experiment: CYP inhibition 2D6; format: in vitro ADME
# Description: Table 1 Physicochemical and in Vitro ADME Properties of DF2726A. | column: DF2726A
# p-STAT3 = p-STAT3 western blotting in F11-derived neurons; format: cell-based; conditions: 24 h
# Experimental: Following neuronal differentiation, neurons were treated for 24 h with DF2726A (1 μM final concentration), oxaliplatin (Sigma-Aldrich; 20 µM final concentration), or the combination of the two molecules.
# Control and treated cells were collected and lysed in ice-cold RIPA buffer (PBS pH 7.4 containing 0.5% sodium deoxycolate, 1% Igepal, 0.1% SDS, 5 mM EDTA, 1% protease and phosphatase inhibitor cocktails; Sigma-Aldrich) as described in[22],[33]. Protein lysates (30 μg) were separated on 8–12% SDS-polyacrilamide gel and electroblotted onto polyvinyldifluoride membrane (PVDF; Sigma-Aldrich). Nonspecific binding sites were blocked by 5% non-fat dry milk (Bio-Rad Laboratories, Hercules, CA, USA) in Tris buffered saline (TBS: 20 mM Tris- HCl, pH 7.4, containing 150 mM NaCl) for 30 min at RT. […] The relative densities of immunoreactive bands were determined and normalized HRP-conjugated β-actin, using ImageJ software. […]
# TRPA1 = experiment: Western blot of DRG of oxaliplatin rats, TRPA1; format: in vivo, male Wistar rats; conditions: 30 mg/kg os
# Experimental: Animals were sacrificed and dorsal root ganglia (DRG) (L4-L6) were removed and stored at […]. They were homogenized on ice-cold lysis buffer [20 mM Tris–HCl (pH 7.5), 10 mM NaF, 150 mM NaCl, 1% Nonidet P-40, 1 mM phenylmethylsulfonyl fluoride, 1 mM Na3VO4, leupeptin and trypsin inhibitor 10 μg/mL; 20 µl/sample, as previously described.
# After 1 h, tissue lysates were obtained by centrifugation at 20,000 g for 15 min at 4 °C. Protein concentrations were estimated by the Bio-Rad protein assay using bovine serum albumin as standard.
# DRG lysate proteins (30 μg) were dissolved in Laemmli sample buffer, boiled for 5 min, and separated on SDS-polyacrylamide gel elctrophoresis and transferred onto nitrocellulose membrane (240 mA for 40 min at room temperature). […] The protein bands were scanned and densitometrically analyzed with a model GS-700 imaging densitometer (Bio-Rad Laboratories, Milan, Italy). […]
# Chain of CYP 2D6 (P10635 whole entry): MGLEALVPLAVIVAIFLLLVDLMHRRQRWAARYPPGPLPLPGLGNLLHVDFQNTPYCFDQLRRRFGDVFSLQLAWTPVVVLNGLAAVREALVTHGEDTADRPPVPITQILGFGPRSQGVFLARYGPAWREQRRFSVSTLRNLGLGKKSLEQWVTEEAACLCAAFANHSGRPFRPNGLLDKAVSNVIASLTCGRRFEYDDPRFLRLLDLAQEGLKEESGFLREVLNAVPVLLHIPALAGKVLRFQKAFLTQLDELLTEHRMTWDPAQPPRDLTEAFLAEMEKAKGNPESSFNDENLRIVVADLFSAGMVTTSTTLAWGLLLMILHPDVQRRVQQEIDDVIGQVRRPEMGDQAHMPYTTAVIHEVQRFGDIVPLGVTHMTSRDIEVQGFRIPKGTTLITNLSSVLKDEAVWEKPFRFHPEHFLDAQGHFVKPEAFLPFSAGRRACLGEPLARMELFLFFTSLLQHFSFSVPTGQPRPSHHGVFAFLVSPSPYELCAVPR
smiles,measurement,setting,value
CC(C)(C(=O)O)c1ccc(Nc2nc(C(F)(F)F)cs2)cc1 [DF2726A],IC50,CYP 2D6,> 30 µM
same,"p-STAT3 levels, oxaliplatin-treated neurons",p-STAT3; DF2726A 1 µM + oxaliplatin 20 µM,counteracted this effect
same,"p-STAT3 levels, paclitaxel-treated neurons",p-STAT3; DF2726A + paclitaxel 10 nM,counteracted this effect
same,TRPA1 expression in DRG of oxaliplatin rats,TRPA1,significant reduction in the expression
